ChEMBL document CHEMBL4000174, “Synthesis and antitumor activity of novel substituted uracil-1'(N)-acetic acid ester derivatives of 20(S)-camptothecins” (Eur J Med Chem, 2017)
The source made the active and inactive calls. The calls are words filed in the database; no cut-off is given here.

Columns and labels:
[1] = tested on: A549; assay: Antiproliferative activity against human A549 cells after 96 hrs by MTT assay; type: functional, cell-based; conditions: A549, 96 h
[2] = tested on: Bel-7402; assay: Antiproliferative activity against human Bel7402 cells after 96 hrs by MTT assay; type: functional, cell-based; conditions: Bel-7402, 96 h
[3] = tested on: BGC-823; assay: Antiproliferative activity against human BGC823 cells after 96 hrs by MTT assay; type: functional, cell-based; conditions: BGC-823, 96 h
[4] = tested on: HCT-8; assay: Antiproliferative activity against human HCT8 cells after 96 hrs by MTT assay; type: functional, cell-based; conditions: HCT-8, 96 h
[5] = tested on: A2780; assay: Antiproliferative activity against human A2780 cells after 96 hrs by MTT assay; type: functional, cell-based; conditions: A2780, 96 h
[6] = tested on: H22; assay: Antitumor activity against mouse H22 cells implanted in Kunming mouse assessed as tumor growth inhibition at 100 mg/kg, ip administered twice relative to control; conditions: read-out: TGI
[7] = tested on: A549; assay: Cell cycle arrest in human A549 cells assessed as accumulation at G0/G1 phase at 8 nM after 24 hrs by propidium iodide staining based flow cytometry (reference value: 58.84%); type: functional
[8] = tested on: A549; assay: Cell cycle arrest in human A549 cells assessed as accumulation at S phase at 8 nM after 24 hrs by propidium iodide staining based flow cytometry (reference value: 32.80%); type: functional
[9] = tested on: A549; assay: Cell cycle arrest in human A549 cells assessed as accumulation at G2/M phase at 8 nM after 24 hrs by propidium iodide staining based flow cytometry (reference value: 8.36%); type: functional
[10] = tested on: A549; assay: Cell cycle arrest in human A549 cells assessed as accumulation at G0/G1 phase at 25 nM after 24 hrs by propidium iodide staining based flow cytometry (reference value: 58.84%); type: functional
[11] = tested on: A549; assay: Cell cycle arrest in human A549 cells assessed as accumulation at S phase at 25 nM after 24 hrs by propidium iodide staining based flow cytometry (reference value: 32.80%); type: functional
[12] = tested on: A549; assay: Cell cycle arrest in human A549 cells assessed as accumulation at G2/M phase at 25 nM after 24 hrs by propidium iodide staining based flow cytometry (reference value: 8.36%); type: functional
[13] = tested on: A549; assay: Cell cycle arrest in human A549 cells assessed as accumulation at G0/G1 phase at 75 nM after 24 hrs by propidium iodide staining based flow cytometry (reference value: 58.84%); type: functional
[14] = tested on: A549; assay: Cell cycle arrest in human A549 cells assessed as accumulation at S phase at 75 nM after 24 hrs by propidium iodide staining based flow cytometry (reference value: 32.80%); type: functional
[15] = tested on: A549; assay: Cell cycle arrest in human A549 cells assessed as accumulation at G2/M phase at 75 nM after 24 hrs by propidium iodide staining based flow cytometry (reference value: 8.36%); type: functional
[16] = tested on: Mus musculus; assay: Toxicity in BALB/c nude mouse xenografted with human Bel7402 cells assessed as body weight at 5 mg/kg, ip administered once in a week for two weeks starting from 6 days post tumor transplantation measured every 3 days for 21 days (reference value: 14.5 g); type: organism-based; conditions: in vivo, 504 h
[17] = tested on: Bel-7402; assay: Antitumor activity against human Bel7402 cells xenografted in BALB/c nude mouse assessed as tumor growth inhibition at 5 mg/kg, ip administered once in a week for two weeks starting from 6 days post tumor transplantation measured 27 to 30 days post tumor transplantation relative to control; type: functional; conditions: Bel-7402, ip, read-out: TGI
[18] = tested on: Escherichia coli; assay: Inhibition of Escherichia coli topoisomerase 1-mediated relaxation of supercoiled Pcmv-6 plasmid DNA at 1 to 50 uM after 30 mins by ethidium bromide staining based agarose gel electrophoretic analysis
[19] = tested on: Bel-7402; assay: Antitumor activity against human Bel7402 cells xenografted in BALB/c nude mouse assessed as tumor volume at 5 mg/kg, ip administered once in a week for two weeks starting from 6 days post tumor transplantation measured 27 to 30 days post tumor transplantation relative to control; type: functional
[20] = tested on: Mus musculus; assay: Antitumor activity in BALB/c nude mouse xenografted with human Bel7402 cells assessed as tumor volume at 5 mg/kg, ip administered once in a week for two weeks starting from 6 days post tumor transplantation measured every 3 days for 21 days (reference value: […]); conditions: in vivo, 504 h
[21] = tested on: Mus musculus; assay: Toxicity in Kunming mouse implanted with mouse H22 cells assessed as body weight at 24 mg/kg, ip administered once in every three days totally for 3 times (reference value: 32.5 g); type: organism-based; conditions: in vivo
[22] = tested on: H22; assay: Antitumor activity against mouse H22 cells implanted in Kunming mouse assessed as tumor growth inhibition at 24 mg/kg, ip administered once in every 3 days totally for 3 times relative to control; type: functional; conditions: 72 h, read-out: TGI
[23] = tested on: Mus musculus; assay: Toxicity in Kunming mouse implanted with mouse H22 cells assessed as body weight at 40 mg/kg, ip administered on day 1 and day 5 (reference value: 32.5 g); type: organism-based; conditions: in vivo
[24] = tested on: H22; assay: Antitumor activity against mouse H22 cells implanted in Kunming mouse assessed as tumor growth inhibition at 40 mg/kg, ip administered on day 1 and day 5 relative to control relative to control; type: functional; conditions: read-out: TGI
[25] = tested on: Mus musculus; assay: Toxicity in Kunming mouse implanted with mouse H22 cell assessed as survival at 40 mg/kg, ip administered on day 1 and day 5; type: organism-based; conditions: in vivo
[26] = tested on: Mus musculus; assay: Toxicity in BALB/c nude mouse xenografted with human BGC823 cells assessed as body weight at 50 mg/kg, ip administered once in a week for two weeks starting from 6 days post tumor transplantation and measured every 3 days during compound dosing for 15 days (reference value: 23.6 g); type: organism-based; conditions: in vivo, 360 h
[27] = tested on: BGC-823; assay: Antitumor activity against human BGC823 cells xenografted in BALB/c nude mouse assessed as tumor growth inhibition at 50 mg/kg, ip administered once in a week for two weeks starting from 6 days post tumor transplantation measured 27 to 30 days post tumor transplantation relative to control; type: functional; conditions: BGC-823, ip, read-out: TGI
[28] = tested on: Mus musculus; assay: Toxicity in BALB/c nude mouse xenografted with human BGC823 cells assessed as mouse survival at 50 mg/kg, ip administered once in a week for two weeks starting from 6 days post tumor transplantation; type: organism-based; conditions: in vivo, 144 h
[29] = tested on: H22; assay: Antitumor activity against mouse H22 cells implanted in Kunming mouse assessed as tumor growth inhibition at 100 mg/kg, ip administered once relative to control; type: functional; conditions: read-out: TGI
[30] = tested on: H22; assay: Antitumor activity against mouse H22 cells implanted in Kunming mouse assessed as tumor growth inhibition at 60 mg/kg, ip administered twice relative to control; type: functional; conditions: read-out: TGI
[31] = tested on: Mus musculus; assay: Toxicity in Kunming mouse implanted with mouse H22 cells assessed as body weight at 100 mg/kg, ip administered once (reference value: 31.1 g); type: organism-based; conditions: in vivo
[32] = tested on: Mus musculus; assay: Toxicity in Kunming mouse implanted with mouse H22 cells assessed as body weight at 60 mg/kg, ip administered twice (reference value: 31.1 g); type: organism-based; conditions: in vivo

| SMILES | IC50 [1] [µM] | IC50 [2] [µM] | IC50 [3] [µM] | IC50 [4] [µM] | IC50 [5] [µM] | also measured |
| --- | --- | --- | --- | --- | --- | --- |
| CCc1c2c(nc3ccccc13)-c1cc3c(c(=O)n1C2)COC(=O)[C@@]3(CC)OC(=O)Cn1ccc(=O)[nH]c1=O | 0.065 | 0.014 | 0.017 | 0.002 | 0.086 |  |
| O=P1(N(CCCl)CCCl)NCCCO1 (stereo not drawn) [CYCLOPHOSPHAMIDE ANHYDROUS] |  |  |  |  |  | inhibition in vivo at 100 mg/kg [6]: 93.7% |
| CC[C@@]1(O)C(=O)OCc2c1cc1n(c2=O)Cc2cc3c(CN(C)C)c(O)ccc3nc2-1 [TOPOTECAN] | 0.007 | 0.1 | 0.078 | 0.022 | 0.078 | Activity [7]: 53.22%; Activity [8]: 35.07%; Activity [9]: 11.71%; Activity [10]: 55.73%; Activity [11]: 31.44%; Activity [12]: 12.83%; Activity [13]: 43.81%; Activity [14]: 23.36%; Activity [15]: 32.83%; Activity [16]: Non-Toxic; inhibition in vivo at 5 mg/kg [17]: 45.5%; inhibition [18]: Active; T/C [19]: 58.8%; tumor volume [20]: 302 mm³ |
| CC(=O)O[C@H]1C(=O)[C@@]2(C)[C@H]([C@H](OC(=O)c3ccccc3)[C@]3(O)C[C@H](OC(=O)[C@H](O)[C@@H](NC(=O)c4ccccc4)c4ccccc4)C(C)=C1C3(C)C)[C@]1(OC(C)=O)CO[C@@H]1C[C@@H]2O [PACLITAXEL] |  |  |  |  |  | Activity [21]: 18.9 g; inhibition in vivo at 24 mg/kg [22]: 73.8% |
| CC[C@@]1(O)C(=O)OCc2c1cc1n(c2=O)Cc2cc3ccccc3nc2-1 [CAMPTOTHECIN] | 0.006 | 0.014 | 0.057 | 0.024 | 0.029 |  |
| CC[C@@]1(OC(=O)Cn2cc(Br)c(=O)[nH]c2=O)C(=O)OCc2c1cc1n(c2=O)Cc2cc3ccccc3nc2-1 | 0.048 | 0.012 | 0.016 | 0.006 | 0.16 | Activity [23]: 32.1 g; inhibition in vivo at 40 mg/kg [24]: 6.39%; Activity [25]: Non-Toxic |
| CC[C@@]1(OC(=O)Cn2ccc(=O)[nH]c2=O)C(=O)OCc2c1cc1n(c2=O)Cc2cc3c([N+](=O)[O-])cccc3nc2-1 | 0.051 | 0.018 | 0.017 | 0.014 | 0.073 | Activity [23]: 32 g; inhibition in vivo at 40 mg/kg [24]: 11%; Activity [25]: Non-Toxic |
| CCc1c2c(nc3ccccc13)-c1cc3c(c(=O)n1C2)COC(=O)[C@@]3(CC)OC(=O)Cn1cc(I)c(=O)[nH]c1=O | 0.71 | 4.51 | 2.57 | 0.586 | 0.669 |  |
| CC[C@@]1(OC(=O)Cn2cc(Br)c(=O)[nH]c2=O)C(=O)OCc2c1cc1n(c2=O)Cc2cc3c([N+](=O)[O-])cccc3nc2-1 | 0.09 | 0.013 | 0.015 | 0.013 | 0.183 |  |
| CCc1c2c(nc3ccc(OC(=O)N4CCC(N5CCCCC5)CC4)cc13)-c1cc3c(c(=O)n1C2)COC(=O)[C@]3(O)CC [IRINOTECAN] |  |  |  |  |  | Activity [26]: 20.5 g; inhibition in vivo at 50 mg/kg [27]: 94.1%; Activity [28]: Non-Toxic |
| CCc1c2c(nc3ccccc13)-c1cc3c(c(=O)n1C2)COC(=O)[C@@]3(CC)OC(=O)Cn1cc(Cl)c(=O)[nH]c1=O | 0.038 | 0.012 | 0.017 | 0.002 | 0.67 | Activity [23]: 27 g; inhibition in vivo at 40 mg/kg [24]: 46.2%; inhibition in vivo at 100 mg/kg [29]: 58.7%; inhibition in vivo at 60 mg/kg [30]: 76.6%; Activity [25]: Non-Toxic; Activity [31]: 25.2 g; Activity [32]: 26.2 g |
| CCc1c2c(nc3ccccc13)-c1cc3c(c(=O)n1C2)COC(=O)[C@@]3(CC)OC(=O)Cn1cc(Br)c(=O)[nH]c1=O | 0.088 | 0.012 | 0.031 | < 0.002 | 0.182 |  |

Now from value to molecule, other results behind:

| IC50 [1] [µM] | IC50 [2] [µM] | IC50 [3] [µM] | IC50 [4] [µM] | IC50 [5] [µM] | SMILES | also measured |
| --- | --- | --- | --- | --- | --- | --- |
| 0.075 | 0.016 | 0.017 | 0.013 | 0.221 | CC[C@@]1(OC(=O)Cn2cc(Cl)c(=O)[nH]c2=O)C(=O)OCc2c1cc1n(c2=O)Cc2cc3c([N+](=O)[O-])cccc3nc2-1 |  |
| 6.4 | 3.28 | 7.89 | 0.957 | 0.75 | CC[C@@]1(OC(=O)Cn2cc(I)c(=O)[nH]c2=O)C(=O)OCc2c1cc1n(c2=O)Cc2cc3ccccc3nc2-1 |  |
| 0.081 | 0.016 | 0.017 | 0.013 | 0.115 | CC[C@@]1(OC(=O)Cn2cc(F)c(=O)[nH]c2=O)C(=O)OCc2c1cc1n(c2=O)Cc2cc3c([N+](=O)[O-])cccc3nc2-1 |  |
| 0.046 | 0.018 | 0.017 | 0.014 | 0.16 | CC[C@@]1(OC(=O)Cn2ccc(=O)[nH]c2=O)C(=O)OCc2c1cc1n(c2=O)Cc2cc3ccccc3nc2-1 |  |
| 0.054 | 0.017 | 0.016 | 0.013 | 0.11 | CC[C@@]1(OC(=O)Cn2cc(Cl)c(=O)[nH]c2=O)C(=O)OCc2c1cc1n(c2=O)Cc2cc3ccccc3nc2-1 |  |
| 0.126 | 0.086 | 0.064 | 0.109 | 0.068 | CC[C@@]1(OC(=O)Cn2cc(F)c(=O)[nH]c2=O)C(=O)OCc2c1cc1n(c2=O)Cc2cc3ccccc3nc2-1 |  |
| 0.117 | 0.013 | 0.016 | 0.014 | 0.2 | CC[C@@]1(OC(=O)Cn2cc(I)c(=O)[nH]c2=O)C(=O)OCc2c1cc1n(c2=O)Cc2cc3c([N+](=O)[O-])cccc3nc2-1 |  |
